Reference: patent EP0077961A2, “Substituted 2-nitro-5-(4-trifluoromethyl-phenoxy) toluols, process for their preparation and their use as herbicides and plant growth regulators” (BAYER AG, priority 1981, dated 1983)

System: Baumwollpflanzen
Assay: Defoliation and desiccation of the leaves of cotton (Beispiel A)
Assay type: in vivo, Baumwolle
Details: greenhouse; cotton plants sprayed dripping wet at full unfolding of the 5th leaf; rated after 1 week against control plants; concentration not given
Excerpt: Entlaubung und Austrocknung der Blätter bei Baumwolle
Lösungsmittel: 30 Gewichtsteile Dimethylformamid Emulgator: 1 Gewichtsteil Polyoxyethylen-SorbitanMonolaurat
Zur Herstellung einer zweckmäßigen Wirkstoffzubereitung vermischt man 1 Gewichtsteil Wirkstoff mit den angegebenen Mengen Lösungsmittel und Emulgator und füllt mit Wasser auf die gewünschte Konzentration auf.
Baumwollpflanzen werden im Gewächshaus bis zur vollen Entfaltung des 5. Folgeblattes angezogen. In diesem Stadium werden die Pflanzen tropfnaß mit den Wirkstoffzubereitungen besprüht. Nach 1 Woche werden der Blattfall und das Austrocknen der Blätter im Vergleich zu den Kontrollpflanzen bonitiert. Es bedeuten: • 0 kein Austrocknen der Blätter, kein Blattfall • + leichtes Austrocknen der Blätter, geringer Blattfall • ++ starkes Austrocknen der Blätter, starker Blattfall • sehr starkes Austrocknen der Blätter, sehr starker Blattfall

Structure (SMILES): CC(=O)OCc1cc(Oc2ccc(C(F)(F)F)cc2Cl)ccc1[N+](=O)[O-] [Beispiel 1, Essigsäure-(2-nitro-5-(2-chlor-4-trifluormethyl-phenoxy)-benzyl)-ester]
- Blattfall und Austrocknen der Blätter: starke Wirksamkeit
